Columns and labels:
[1] = method code SF-AS, from DOI: 10.1021/jf00085a044

SMILES	logP [1]	logP
CN(C)C(=O)Nc1ccc(Oc2nnnn2C(C)(C)C)cc1		1.65
CCCCCCCCn1nnnc1Oc1ccc(NC(=O)N(C)C)cc1	3.96	
C=CCn1nnnc1Oc1ccc(NC(=O)N(C)C)cc1		1
CN(C)C(=O)Nc1ccc(Oc2nnnn2C2CCCCC2)cc1	2.18	
CN(C)C(=O)Nc1ccc(Oc2nnn(Cc3ccccc3)n2)cc1		2.25
CN(C)C(=O)Nc1ccc(Oc2nnnn2C(C)(C)C)c(Cl)c1		2.25
CN(C)C(=O)Nc1ccc(Oc2nnnn2Cc2ccccc2)cc1		1.7
CCn1nnc(Oc2ccc(NC(=O)N(C)C)cc2Cl)n1		1.7
CCn1nnc(Oc2ccc(NC(=O)N(C)C)cc2)n1	1.1	
CN(C)C(=O)Nc1ccc(Oc2nnn(C(C)(C)C)n2)cc1	2.08	
C#CCn1nnnc1Oc1ccc(NC(=O)N(C)C)cc1		1

Other lines, results leading:

logP [1]	logP	SMILES
1.5		CCn1nnnc1Oc1ccc(NC(=O)N(C)C)cc1Cl
2.67		CN(C)C(=O)Nc1ccc(Oc2nnn(C3CCCCC3)n2)cc1
0.7		CCOC(=O)Cn1nnnc1Oc1ccc(NC(=O)N(C)C)cc1
0.28		CN(C)C(=O)Nc1ccc(Oc2nnn(CCC#N)n2)cc1
0.63		CN(C)C(=O)Nc1ccc(Oc2nnn(C)n2)cc1
	1.65	C=CCn1nnc(Oc2ccc(NC(=O)N(C)C)cc2)n1
	1.45	CC(C)n1nnc(Oc2ccc(NC(=O)N(C)C)cc2)n1
	1.65	C#CCn1nnc(Oc2ccc(NC(=O)N(C)C)cc2)n1
	4.4	CCCCCCCCn1nnc(Oc2ccc(NC(=O)N(C)C)cc2)n1

Reference: the SangsterLogP compilation
